According to patent US8865237B2, “Method of preparing dialysed extract of fenugreek seeds which induces hypoglycemia, mediated, in part, via stimulation of insulin signaling pathway” (Department of Biotechnology, priority 2006, dated 2014):

How the values were obtained:
[1] = test system: PKCλ in HepG2 cells; assay: Confocal microscopy analysis of PKC translocation in HepG2 cells; assay type: cell-based, human; conditions: HepG2, pretreatment before extract
Procedure: Confocal microscopy analysis of PKC translocation in HepG2 cells. HepG2 cells were serum starved for 3 h and were treated with either 100 nmol/l insulin for 10 min or 25 mg/l FSE for 30 min. In some wells, cells were pretreated with pharmacological inhibitors before treating with extract. Cells were washed quickly with cold PBS and fixed by treating with 3% paraformaldehyde in PBS Ph 7.4, for 15 min at room temperature, rinsed with PBS three times and quenched with 1% glycine for 10 min. Cells were permeabilised with 0.025% saponin in PBS, for 5 min, blocked with PBS containing 5% FBS for 1 h at room temperature, incubated with anti-PKC antibody for overnight at 4° C. in PBS oontaining 2.5% FBS. Cells were washed four times for 5 min each with PBS. Cells were then incubated with a flourescein isothoicyanate conjugated anti-rabbit antibody for additional 1 h, washed again and mounted using vectashield (Vector Laboratories, Burlingame, Calif.) for visualization by confocal microscopy. Rabbit IgG was used as an isotype control.
Effect of FSE on PKCλ translocation in 3T3-L1 and RepG2 cells. […] To investigate the link between FSE induced 1R phosphorylation and GLUT4 translocation, translocation of PKCλ was studied in both 3T3-L1 and HepG2. […] Wortmannin and bis-1 decreased the fluorescence associated with the membrane.

[2] = test system: GLUT4 in 3T3-L1 adipocytes; assay: GLUT4 translocation in 3T3-L1 cells (mycGLUT4 ELISA, membrane fractionation); assay type: cell-based
Procedure: GLUT4 Translocation Assay in GLUT4 Overexpressing Cell lines. CHO clones expressing insulin receptor and GLUT4eGFP protein were plated on a microscopic chamber slide (ICN, Costa Mesa, Calif.), serum starved in DMEM containing 1 mg/ml BSA for 3 h, followed by treatment with 100 nmol/l insulin or 25 mg/l FSE for 10 and 30 min respectively. Treatment was terminated by keeping the slide on ice and washing with cold PBS. Cells were fixed with 3% para-formaldehyde (PF) in PBS for 15 min at room temperature. GLUT4 translocation was investigated by using LSM confocal microscope (Zeiss LSM 510, Heidelberg, Germany). 3T3-L1 expressing mycGLUT4 were grown in 96 well plated then differentiated to adipocytes, serum starved for 3 h and incubated with insulin or FSE for 10 and 30 min respectively. To examine the specificity of the signaling pathway the cells were pretreated with wortmannin (100 nmol/l) or BIS-1 (100 nmol/l) for 20 min and 1 h respectively. […] The optical absorbance of the supernatant was measured at 414 nm. […]
(§1) Effect of FSE on glucose transport in GLUT4 overexpressing cells. […] CHO cells overexpressing insulin receptor as well as GLUT4 were incubated in the presence of various concentrations of FSE for 30 min and glucose transport was measured by determining the rates 2DG uptake. […]

[3] = test system: CHO clones expressing insulin receptor and GLUT4eGFP; assay: Glucose transport (2-DG uptake) in GLUT4 overexpressing CHO cells; assay type: cell-based; conditions: wortmannin 20 min or BIS-1 100 nmol/l 1 h, then extract 30 min
Procedure: Cell Culture In Vitro Studies. […] For preadipocyte differentiation 80% confluent preadipocytes were cultured for 2 days in differentiation medium (DMEM supplemented with 1 μmol/l insulin, 0.5 mmol/l IBMX, 0.25 μmol/l DEX containing 10% FBS) and for 2 days in DMEM supplemented with 1 μmol/l insulin and 10% FBS. Thereafter the cells were grown for an additional 4-5 days in DMEM containing 10% FBS. Media was changed on every second day without any additional supplements. CHO clones expressing insulin receptor and GLUT4eGFP protein were grown in media supplemented with hygromycin additionally (100 μg/ml). Penicillin (100 units/ml) and streptomycin ([…]) were added routinely to cultures and all cell lines were cultivated at 37° C. in a 5% CO2 enriched humidified atmosphere.
Effect of FSE on glucose transport. […] Protein was estimated and the radioactivity incorporated into cells was quantified by scintillation counting (Packard, Albertville, Minn.). Nonspecific uptake, measured in the presence of 10 μmol/l cytochalasin B, was subtracted from all values. […]
as §1

[4] = test system: PKCλ in 3T3-L1 adipocytes; assay: PKCλ in plasma membrane fraction of 3T3-L1 adipocytes (immunoblotting); assay type: cell-based; conditions: wortmannin 100 nmol/l 20 min, BIS-1 100 nmol/l 1 h
Procedure: Isolation of plasma membrane fraction and immunoblotting detection of PKCλ and GLUT4 in 3T3-L1 adipocytes. Differentiated 3T3-L1 cells in 100 mm petri dishes were serum starved for 3 h in DMEM supplemented with 0.1% BSA and then treated with 100 nmol/l insulin or […] for 10 min and 30 min respectively. In some cases cells were pre-treated with 100 nmol/l wortmannin, for 20 min or 100 nmol/l BIS-1 for 1 h followed by treatment with extract t for additional 30 min. Plasma membrane fractionation of 3 T3-L1 adipocytes was performed as previously described (28) with slight modifications that 1 mmol/l PMSF, 1 mmol/l Na3VO4 and a cocktail of protease inhibitors were added to the lysis buffers. Equal protein was diluted with 5× Laemmli buffer, electrophoresied by 10% SDS-PAGE and transferred on to a nitrocellulose membrane. The membrane was probed with anti-nPKCλ or anti-GLUT4 antibody.
Effect of FSE on PKCλ translocation in 3T3-L1 and RepG2 cells. […] To investigate the link between FSE induced 1R phosphorylation and GLUT4 translocation, translocation of PKCλ was studied in both 3T3-L1 and HepG2. […] In unstimulated HepG2 cells the immunofluorescence was minimum as visualized by confocal microscopy. […] Wortmannin and bis-1 decreased the fluorescence associated with the membrane.

[5] = test system: liver glucokinase (GK); assay: Liver glucokinase assay in STZ-BALB/cJ mice; assay type: in vivo
Procedure: BALB/cJ or Swiss albino mice (male, 8-10 week old) were housed under environmentally controlled conditions (22+/−2° C.) with a 12 h light/dark cycle and had free access to standard rodent pellet food and water. Animals were given 5 daily intraperitoneal (IP) injection of freshly prepared STZ (40 mg/kg in 0.5 mol/l sodium citrate pH 4.5) or AXN (50 mg/kg in 0.9% sodium chloride). Ten hours before the experiments, animals were moved to new cages in which no food was available. AXN injected mice that achieved a glucose level of 200-300 mg/dl and STZ injected mice that achieved a glucose level of 275-400 mg/dl were used as hyperglycemic models in this study. Mice were divided into, diabetic control group, insulin group and FSE group (n=5 in each group). Mice were injected (IP) with vehicle (PBS), insulin (1.5 U/kg) or extract (1, 5 or 15 mg/kg). Blood was collected before injection (0 min), 90 and 240 min after the treatments and serum blood glucose levels were estimated. In some experiments STZ-BALB/cJ mice were sacrificed 90 min after the treatments, and the livers were harvested for analysis. In another set of experiments, AXN-induced Swiss albino diabetic mice were injected with PBS or extract for 5 days (n=5). Blood was collected on day 0, 5, 10 and 15 and body weight was monitored on same day. Acidified insulin from bovine pancreas diluted in PBS was used as a positive test compound in all the experiments. All animal experiments have been performed following the requirement of the committee for the Purpose of Control and Supervision of Experiments on Animals (CPCSEA), Government of India, and after permission of the Institute's Animal Care and Use Committee (IACUC).
Glucokinase assay. Liver samples were homogenized in three volumes of ice cold buffer containing 50 mmol/l Tris-HCl, pH 7.4, 300 mmol/l sucrose, 100 mmol/l KCl, 1 mmol/l EDTA 2.5 mmol/1 mercaptoethanol and centrifuged at 12,000×g for 15 min (12). […] GK activity was calculated as the difference between the glucose phosphorylation capacity at 100 and 0.5 mmol/l glucose. […]

[6] = test system: insulin receptor, IRS-1 and p85 subunit of PI3-Kinase in 3T3-L1 adipocytes; assay: Phosphorylation of insulin signaling proteins in 3T3-L1 adipocytes (western blot); assay type: cell-based; conditions: 3T3-L1, 25 mg/l FSE or 100 nmol/l insulin
Procedure: (§2) Effect of FSE on insulin signaling proteins in 3T3-L1 Adipocytes and HepG2 cell lines. Differentiated 3T3-L1 adipocytes or HepG2 cell were serum starved in F-12K medium containing 7 mM glucose and 0.1% BSA for 16 h followed by changing medium to DMEM containing 25 mmol/l glucose and incubated for 1 h. Subsequently the cells were treated with 100 nmol/l insulin or 25 mg/l FSE for 10 min and 30 min respectively. Untreated cells were incubated with PBS. Cells were washed with cold PBS, removed from the plates using a rubber policeman, lysed in lysis buffer (50 mmol/l Tris-HCl pH7.5, 150 mmol/l NaCl, 1% NP-40, 2 mmol/l EGTA, 2 mmol/l Na3VO4, 100 mmol/l Na4P2O7, […], 1 mmol/l PMSF and protease inhibitor cocktail) on ice for 30 min, passed through 261/2G syringe 20 times and finally centrifuged at 15,000×g for 10 min at 4° C. Equal amounts of protein (100 μg) were diluted in 5× Laemmli reducing buffer (250 mmol/l Tris-HCl p 6.8, 10% SDS, 0.5% bromophenol blue, 50% glycerol, 12.5% β-mercaptoethanol) boiled for 5 min at 100° C. and resolved by 8% SDS-PAGE by running proteins below 43 kDa out of the gel. The proteins form the gel were transferred to nitrocellulose membrane using transfer buffer (CAPS buffer pH 10.7 containing 10% methanol) by applying 150 mA current for 2 h. […]

[7] = test system: insulin receptor, IRS-1 and p85 subunit of PI3-Kinase in HepG2 cells; assay: Phosphorylation of insulin signaling proteins in HepG2 cells (western blot); assay type: cell-based, human; conditions: HepG2, 25 mg/l FSE or 100 nmol/l insulin
Procedure: as §2

CN(C)CCCn1cc(C2=C(c3c[nH]c4ccccc34)C(=O)NC2=O)c2ccccc21 [BIS-1]
effect of inhibitors on fluorescence associated with the membrane [1]: decreased | effect of inhibitor pretreatment on FSE induced GLUT4 translocation ([2]; wortmannin 100 nmol/l 20 min, BIS-1 100 nmol/l 1 h): masked | effect of inhibitor pretreatment on FSE stimulated glucose uptake [3]: abrogated | effect of inhibitor pretreatment on translocation of PKCλ induced by FSE [4]: inhibited

insulin
enhancement of GK activity compared to diabetic control ([5]; STZ-diabetic BALB/cJ mice, 90 min, FSE 15 mg/kg): 460% | activation of GK compared to control treated animals ([5]; diabetic animals, 90 min treatment): 4.5 fold | GK activity ([5]; liver removed 90 min after treatment, insulin 1.5 U/kg or FSE 15 mg/kg): 690.0 nmol/min/mg | enhancement of glucose uptake ([2]; 100 nmol/l insulin, under similar experimental conditions): 2.5 fold | IR-α phosphorylation [6]: did not exhibit | IR-α phosphorylation [7]: did not exhibit
